Measurements taken from the supplement of paper PMC6045584.
± gives the standard deviation of the averaged measurements.

Legend:
[1] = compound: CC[C@@]1(O)C(=O)OCc2c1cc1n(c2=O)Cc2cc3ccccc3nc2-1 [CAMPTOTHECIN]; assay: surviving fraction relative to DMSO-only wells; higher = less growth inhibition; settings: exposure time: 5 days
Method in brief: (§1)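 Inhibitors were tested at 0.5, 1, 5, 10, 50, 100, 500 and 1000 nM, applied continuously for five days beginning 24 hours after log-phase tumour cells were seeded at 250–500 per well in 384-well plates. CellTiter-Glo luminescence served as the viability measure, expressed as surviving fraction against the median of DMSO-only wells. Each line, screened three times, was kept only with replicate Pearson r >0.7 and median Z' >0.3.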

[2] = compound: COCC[n+]1c2c(n(Cc3cnccn3)c1C)C(=O)c1ccccc1C2=O [YM155]; assay: as above; settings: exposure time: 5 days
Method in brief: as §1

| Test System | surviving fraction ([1]; 0.5 nM) | surviving fraction ([1]; 1 nM) | surviving fraction ([1]; 5 nM) | surviving fraction ([1]; 10 nM) | surviving fraction ([1]; 50 nM) | surviving fraction ([1]; 100 nM) | surviving fraction ([1]; 500 nM) | surviving fraction ([1]; 1000 nM) | surviving fraction ([2]; 0.5 nM) | surviving fraction ([2]; 1 nM) | surviving fraction ([2]; 5 nM) | surviving fraction ([2]; 10 nM) | surviving fraction ([2]; 50 nM) | surviving fraction ([2]; 100 nM) | surviving fraction ([2]; 500 nM) | surviving fraction ([2]; 1000 nM) |
| --- | --- | --- | --- | --- | --- | --- | --- | --- | --- | --- | --- | --- | --- | --- | --- | --- |
| SCC90 HEADNECK | 0.823 ± 0.035 | 0.879 ± 0.043 | 0.904 ± 0.058 | 0.75 ± 0.046 | 0.343 ± 0.056 | 0.253 ± 0.032 | 0.04 ± 0.0076 | 0.0327 ± 0.0051 | 0.914 ± 0.097 | 0.937 ± 0.021 | 1.08 ± 0.1 | 1.1 ± 0.037 | 0.676 ± 0.085 | 0.276 ± 0.039 | 0.0483 ± 0.0067 | 0.0363 ± 0.0031 |
| SG27 HEADNECK | 0.702 ± 0.062 | 0.888 ± 0.19 | 0.867 ± 0.089 | 0.906 ± 0.021 | 0.724 ± 0.034 | 0.928 ± 0.096 | 0.482 ± 0.055 | 0.203 ± 0.025 | 1.13 ± 0.13 | 1.05 ± 0.092 | 0.813 ± 0.13 | 0.575 ± 0.066 | 0.105 ± 0.035 | 0.0347 ± 0.0038 | 0.0367 ± 0.02 | 0.048 ± 0.017 |
| SG28 HEADNECK | 0.21 ± 0.068 | 0.771 ± 0.12 | 0.579 ± 0.056 | 0.696 ± 0.099 | 0.337 ± 0.015 | 0.55 ± 0.044 | 0.211 ± 0.04 | 0.102 ± 0.0035 | 1.07 ± 0.083 | 1.17 ± 0.066 | 0.882 ± 0.025 | 0.631 ± 0.05 | 0.105 ± 0.005 | 0.058 ± 0.013 | 0.0285 ± 0.00071 | 0.033 ± 0.0014 |
| SG31 HEADNECK | 0.444 ± 0.03 | 0.911 ± 0.064 | 0.607 ± 0.074 | 0.715 ± 0.1 | 0.376 ± 0.021 | 0.37 ± 0.049 | 0.189 ± 0.017 | 0.133 ± 0.018 | 1.01 ± 0.095 | 1.07 ± 0.074 | 0.883 ± 0.062 | 0.893 ± 0.11 | 0.391 ± 0.13 | 0.291 ± 0.15 | 0.0993 ± 0.037 | 0.104 ± 0.064 |
| SG32 HEADNECK | 0.308 ± 0.056 | 0.492 ± 0.0071 | 0.336 ± 0.0083 | 0.447 ± 0.071 | 0.25 ± 0.036 | 0.263 ± 0.037 | 0.0417 ± 0.0055 | 0.026 ± 0.002 | 0.841 ± 0.053 | 0.83 ± 0.12 | 0.438 ± 0.017 | 0.238 ± 0.036 | 0.0633 ± 0.027 | 0.025 ± 0.0036 | 0.0197 ± 0.0021 | 0.0227 ± 0.0011 |
| SG43 HEADNECK | 1.16 ± 0.13 | 1.18 ± 0.2 | 1.01 ± 0.11 | 0.854 ± 0.18 | 0.624 ± 0.044 | 0.329 ± 0.04 | 0.256 ± 0.054 | 0.143 ± 0.037 | 1.18 ± 0.4 | 1.02 ± 0.032 | 0.744 ± 0.088 | 0.81 ± 0.15 | 0.783 ± 0.052 | 0.705 ± 0.084 | 0.159 ± 0.058 | 0.0523 ± 0.0084 |
| SIHA CERVIX | 0.822 ± 0.017 | 0.889 ± 0.024 | 0.857 ± 0.033 | 0.539 ± 0.1 | 0.44 ± 0.039 | 0.377 ± 0.0053 | 0.099 ± 0.0017 | 0.0593 ± 0.0023 | 0.917 ± 0.056 | 0.938 ± 0.069 | 0.977 ± 0.049 | 0.735 ± 0.011 | 0.0433 ± 0.0055 | 0.022 ± 0.002 | 0.0197 ± 0.00058 | 0.0243 ± 0.0015 |
| SKBR3 BREAST | 0.83 ± 0.073 | 0.806 ± 0.029 | 0.757 ± 0.1 | 0.529 ± 0.029 | 0.222 ± 0.01 | 0.166 ± 0.013 | 0.0683 ± 0.0042 | 0.0517 ± 0.0049 | 0.89 ± 0.03 | 0.849 ± 0.055 | 0.825 ± 0.024 | 0.53 ± 0.071 | 0.0403 ± 0.012 | 0.0253 ± 0.0067 | 0.0247 ± 0.0074 | 0.0243 ± 0.0058 |
| SNU475 LIVER | 0.34 ± 0.0091 | 0.828 ± 0.034 | 0.635 ± 0.0066 | 0.482 ± 0.023 | 0.162 ± 0.0079 | 0.194 ± 0.012 | 0.103 ± 0.0081 | 0.104 ± 0.0085 | 0.815 ± 0.055 | 0.991 ± 0.048 | 0.97 ± 0.044 | 0.944 ± 0.03 | 0.372 ± 0.035 | 0.123 ± 0.012 | 0.0263 ± 0.00058 | 0.0303 ± 0.0015 |
| SUM149 BREAST |  |  |  | 0.126 ± 0.0081 | 0.102 ± 0.0081 | 0.0913 ± 0.0049 | 0.048 ± 0.0052 | 0.0367 ± 0.0055 | 0.87 ± 0.17 | 1.07 ± 0.061 | 0.81 ± 0.064 | 0.445 ± 0.093 | 0.044 ± 0.001 | 0.0257 ± 0.0035 | 0.0203 ± 0.0032 | 0.023 ± 0.0036 |
| SUM159 BREAST | 0.915 ± 0.014 | 0.937 ± 0.015 | 0.793 ± 0.018 | 0.26 ± 0.0036 | 0.1303 ± 0.00058 | 0.0763 ± 0.0031 | 0.03 ± 0.001 | 0.0283 ± 0.00058 | 0.994 ± 0.042 | 1.02 ± 0.032 | 0.536 ± 0.072 | 0.537 ± 0.057 | 0.069 ± 0.0098 | 0.0383 ± 0.0015 | 0.0217 ± 0.00058 | 0.0273 ± 0.00058 |
| SYO1 SYNOVIAL | 0.359 ± 0.023 | 0.663 ± 0.033 | 0.325 ± 0.026 | 0.15 ± 0.024 | 0.0272 ± 0.0011 | 0.0304 ± 0.00084 | 0.0254 ± 0.0012 | 0.0321 ± 0.0019 | 0.847 ± 0.01 | 0.967 ± 0.035 | 0.761 ± 0.03 | 0.514 ± 0.012 | 0.0558 ± 0.0015 | 0.0337 ± 0.0012 | 0.0242 ± 0.00051 | 0.0279 ± 0.0021 |
| T47D BREAST | 0.819 ± 0.035 | 0.878 ± 0.023 | 0.743 ± 0.019 | 0.528 ± 0.012 | 0.259 ± 0.013 | 0.236 ± 0.0055 | 0.157 ± 0.006 | 0.137 ± 0.0086 | 0.959 ± 0.013 | 0.983 ± 0.027 | 0.917 ± 0.035 | 0.763 ± 0.0085 | 0.212 ± 0.01 | 0.131 ± 0.01 | 0.0481 ± 0.0042 | 0.0483 ± 0.0017 |
| U2OS BONE | 0.924 ± 0.055 | 0.943 ± 0.054 | 0.948 ± 0.025 | 0.733 ± 0.03 | 0.567 ± 0.011 | 0.464 ± 0.0056 | 0.121 ± 0.013 | 0.0677 ± 0.0097 | 1.02 ± 0.026 | 1.005 ± 0.0056 | 0.616 ± 0.036 | 0.304 ± 0.043 | 0.033 ± 0.001 | 0.023 | 0.021 | 0.0247 ± 0.00058 |
| YAMATO SYNOVIAL | 0.118 ± 0.0092 | 0.562 ± 0.092 | 0.466 ± 0.035 | 0.479 ± 0.033 | 0.0957 ± 0.0085 | 0.247 ± 0.026 | 0.16 ± 0.0095 | 0.284 ± 0.028 | 0.656 ± 0.066 | 0.874 ± 0.067 | 0.39 ± 0.039 | 0.29 ± 0.027 | 0.229 ± 0.014 | 0.206 ± 0.0017 | 0.191 ± 0.015 | 0.267 ± 0.016 |
| ZR751 BREAST | 0.774 ± 0.073 | 0.823 ± 0.12 | 0.693 ± 0.13 | 0.586 ± 0.099 | 0.266 ± 0.024 | 0.223 ± 0.005 | 0.121 ± 0.0096 | 0.0797 ± 0.0025 | 0.835 ± 0.1 | 0.95 ± 0.085 | 0.559 ± 0.083 | 0.411 ± 0.07 | 0.128 ± 0.017 | 0.0917 ± 0.0067 | 0.0307 ± 0.0055 | 0.0287 ± 0.0031 |
